Assay results as given in patent publication US5763470A, “Benzopyran compounds and methods for their use” (Sugen Inc., priority 1995, dated 1998).

What was measured:
Format in all cases: cell-based
[1] = system: MCF7 cells overexpressing HER2 kinase (MCF7-HER2); experiment: MCF-7/HER-2 SRB Growth Assay; conditions: Homo sapiens, MCF7, 96 h; 0.5% FBS; 4 days; read-out: Cell Growth Assays, MCF7 Her-2 0.5% FBS
[2] = system: NIH3T3C7 cells; experiment: 3T3/HER2 Cell Growth Assay, 3T3 control cells (beside 3T3 HER-2); conditions: 96 h; 10% FBS; column beside 3T3 HER-2; 4 days; read-out: Cell Growth Assays, 3T3 10% FBS
Description: (§1) The NIH3T3 growth assay, using cell lines capable of expressing HER2, was carried out as follows:
(§2) m. NIH3T3C7 cells in 10% CS+2 mM glutamine DMEM HER2C7 cells in 2% FBS+2 mM glutamine DMEM
(§3) 1. HER2C7 (engineered to express HER2) and NIH3T3C7 (as the control) cells are used for this assay. NIH3T3C7 cells are seeded at 2500 cells/well, […] in 10% CS+2 mM glutamine DMEM, in a 96 well plate; HER2C7 cells are seeded at 6000 cells/well, 100 μl/well in 2% FBS+2 mM glutamine DMEM, in a 96 well plate. Cells are incubated at 37° C., 5% CO2 overnight to allow for cell attachment to the plate;
(§4) 2. The TBST compound is added to the cells at day 2. The compounds are prepared in the appropriate growth medium (10% CS+2 mM) glutamine DMEM for NIH3T3C7 cells; 2% FBS+2 mM glutamine DMEM for HER2C7 cells) in a 96 well plate, and serially diluted. A total of 100 μl/well medium of the diluted compounds is added into the cells. The total volume of each well is 200 μl. Quadruplicates (wells) and 11 concentration points are applied to each compound tested.
(§5) 3. After the cells are treated with the compound for 4 days, the cells are washed with PBS and fixed with 200 μl/well ice-cold 10% TCA for one hour at 0-5° C. condition.
(§6) 4. Remove TCA and rinse wells […] with deionized water. Dry plates upside down with paper towels. […]
7. Read the plate at dual wavelengths at 570 nm and 630 nm on Dynatech Elisa plate reader.

[3] = system: NIH3T3 c7 cells; experiment: Cell growth assay, 3T3 control cells (beside 3T3 IGF-1R); conditions: Mus musculus, 10% FBS, column beside 3T3 IGF-1R, read-out: Cell Growth Assays, 3T3 10% FBS
Description: (§7) a. The NIH3T3/IGF-1R (10% FBS/2 mM glutamine/DMEM) and NIH3T3 c7 (10% calf serum/2 mM glutamine/DMEM) cell lines were used wherein the NIH3T3 cells (and cells derived from them) were handled such that they were not allowed to become confluent, thus decreasing the likelihood of spontaneous transformation.
(§8) Day 0: Cell Plating--Trypsinize and count NIH3T3/IGF-1R and NIH3T3 c7 cells. Dilute in growth media to 2000 cells/200 μl and seed flat bottom 96-well plates with 200 μl/well, one plate for two compounds for each cell line.
Day 4: Refeed--Repeat steps above, adding exactly the same IGF-1 and compound concentration to each well as before.
Using wells in column 2 (treated with IGF-1 but not compound) as 100%, calculate percent of control for each concentration of compound.
Use a curve fit method to graph percent of control vs. log(molar concentration) and determine the IC50.

[4] = system: HER2C7 cells (NIH3T3 engineered to express HER2); experiment: 3T3/HER2 Cell Growth Assay, 3T3 HER-2 cells; conditions: Mus musculus, NIH3T3, 96 h; 2% FBS; 4 days; read-out: Cell Growth Assays, 3T3 HER-2 2% FBS
Description: as §1, §2, §3, §4, §5, §6
7. Read the plate at dual wavelengths at 570 nm and 630 nm on Dynatech Elisa plate reader. […]

[5] = system: MCF7 cells; experiment: MCF-7 SRB Growth Assay; conditions: Homo sapiens, MCF7, 96 h; 10% FBS; 4 days; read-out: Cell Growth Assays, MCF7 10% FBS
Description: Assay 1: MCF-7 RB Growth Assay. MCF-7 cells are seeded at 2000 cells/well in a 96-well flat bottom plate in normal growth media, which was 10% FBS/RPMI supplemented with 2 mM Glutamine. The plate of cells is incubated for about 24 hours at 37° C. after which it receives an equal volume of compound dilution per well making the total volume per well 200 μl. The compound is prepared at 2 times the desired highest final concentration and serially diluted in the normal growth media in a 96-well round bottom plate and then transferred to plate of cells. DMSO serves as the vector control up to 0.2% as final concentration. The cells are then incubated at 37° C. in a humidified 5% CO2 incubator. Four days following dosing of compound, the media is 15 discarded and 200 μl/well of ice-cold 10% TCA (Trichloroacetic Acid) is added to fix cells. After 60 minutes at 4° C., the TCA is discarded and the plate is rinsed 5 times with water. The plate is then air-dried and 100 μl/well of 0.4% SRB (Sulforhodamine B from Sigma) 20 in 1% Acetic Acid is added to stain cells for 10 minutes at room temperature. The SRB is discarded and the plate is rinsed 5 times with 1% Acetic Acid. After the plate is completely dried, 100 μl/well of 10 mM Tris-base is added to solubilize the dye. After 5 to 10 minutes, the plate is read on a Dynatech ELISA Plate Reader at dual wavelengths at 570 nm and 630 nm. […]

[6] = system: NIH3T3/IGF-1R cells; experiment: IGF-I Receptor Growth Assay, 3T3 IGF-1R cells; conditions: Mus musculus, 0.5% FBS, 10 nM IGF-1, read-out: Cell Growth Assays, 3T3 IGF-1R 0.5% FBS
Description: Assay 2: IGF-I Receptor Growth Assay
Materials And Methods. The following materials were used to conduct the IGF-I receptor growth assay:
as §7
Using the above described materials, the following steps were performed under aseptic conditions until fixing the cells for the SRB assay:
as §8
Day 1: Compound Preparation--Add DMSO to each compound to make 100 mM stock solutions.
NIH3T31IGF-1R cells--For each 96-well plate, make 15 ml of 10 nM IGF-1/0.5% FBS/2 mM glutamine/DMEM (30 μl of 5 μM IGF-1/15 ml).
Add 3 μl of 100 mM stock of each compound to a tube so 200 μM final. Shake or vortex until it goes into solution. If it is necessary to add additional medium, note the final concentration.
Do 2-fold dilutions (130 μl) from columns 12 to 3 on each plate (column 2 will be for the untreated control), mixing thoroughly. […]

## COc1cccc2c1OC(c1ccc(F)cc1)C([N+](=O)[O-])=C2 (stereo not drawn) [Compound A, 2-(4-Fluorophenyl)-8-methoxy-3-nitro-1,2-benzopyran]
[1]
  IC50: 800 nM
[2]
  IC50: 70000 nM
[3]
  IC50: 5600 nM
[4]
  IC50: 1800 nM
[5]
  IC50: 2000 nM
[6]
  IC50: 2500 nM
